Patent publication US20240175019A1, “Skeletal Muscle Delivery Platforms and Methods of Use” (Arrowhead Pharmaceuticals, Inc., priority 2020, published 2024)
Oligonucleotides are written 5' to 3', each unit as a sugar letter and its base; * is a phosphorothioate linkage, no mark a phosphodiester; rarer units and linkages stand in square brackets, end groups in braces. Plain capitals give the bases only. {NH2-C6} = C6 amine reactive group for conjugation; {Alk-cyHex} = alkyne-cyclohexyl conjugation group; [invAb] = inverted abasic deoxyribose residue; [C6-SS-C6] = C6-disulfide-C6 linker; d = 2'-deoxy (DNA); m = 2'-O-methyl; f = 2'-fluoro

tested on: myostatin mRNA; assay: MSTN expression in triceps of mice by qPCR TaqMan assay (Example 7); assay type: in vivo; details: Day 22, mice, 3 mg/kg single injection on Day 1, n=4
Protocol: On Study Day 1, mice were injected with either isotonic saline (vehicle control) or 3 mg/kg (mpk) of RNAi agent formulated in isotonic saline according to the following dosing Groups:
The RNAi agents in Example 7 were synthesized having nucleotide sequences directed to target the MSTN gene, and groups 1 and 3 included a functionalized amine reactive group (NH2-C6) at the 5′ terminal end of the sense strand to facilitate conjugation to L4 which could then be conjugated to the small molecule targeting ligand Compound 45b. Group 2 included an (Alk-cyHex)s (see Table 28 for structure details) which was conjugated to the small molecule targeting ligand Compound 45b. The myostatin RNAi agents further included a PEG48+C22 PK/PD modulator, which was linked to the 3′ end of the sense strand.
Four (4) mice were dosed in each Group (n=4). Mice were sacrificed on study day 22, and total myostatin mRNA was isolated from the triceps. Triceps were harvested from right front limb. Each sample was snap-frozen in percellys tubes and stored in a −80° C. freezer until assays were completed. Relative MSTN expression was determined by qPCR TaqMan Assay on muscle tissue.

Row | Substance | Average relative MSTN expression, Relative Expression
1 | AD06326: AS: usGfsusUfaCfagcaaGfaUfcAfuGfgCfsc; SS: (NH2-C6)s(invAb)sggccaugaUfCfUfugcuguaacas(invAb)(C6-SS-C6)dT (antisense mU*fG*mU*fUmAfCmAmGmCmAmAfGmAfUmCfAmUfGmGfC*mC; sense {NH2-C6}*[invAb]*mGmGmCmCmAmUmGmAfUfCfUmUmGmCmUmGmUmAmAmCmA*[invAb][C6-SS-C6]dT; siRNA; Compound 45b ligand via L4 on sense 5' amine, PEG48+C22 at sense 3') | 0.296
2 | AD06912: AS: usGfsusUfaCfagcaaGfaUfcAfuGfgCfsc; SS: (Alk-cyHex)s(invAb)sggccaugaUfCfUfugcuguaacas(invAb)(C6-SS-C6)dT (antisense mU*fG*mU*fUmAfCmAmGmCmAmAfGmAfUmCfAmUfGmGfC*mC; sense {Alk-cyHex}*[invAb]*mGmGmCmCmAmUmGmAfUfCfUmUmGmCmUmGmUmAmAmCmA*[invAb][C6-SS-C6]dT; siRNA; Compound 45b ligand on sense 5' Alk-cyHex, PEG48+C22 at sense 3') | 0.253
3 | AD06916: AS: usGfsusUfaCfagcaaGfaUfcAfuGfgCfsc; SS: (NH2-C6)s(invAb)sggccaugaUfCfUfugcuguaacas(invAb)s(C6-SS-C6)dT (antisense mU*fG*mU*fUmAfCmAmGmCmAmAfGmAfUmCfAmUfGmGfC*mC; sense {NH2-C6}*[invAb]*mGmGmCmCmAmUmGmAfUfCfUmUmGmCmUmGmUmAmAmCmA*[invAb]*[C6-SS-C6]dT; siRNA; Compound 45b ligand via L4 on sense 5' amine, PEG48+C22 at sense 3') | 0.295
